{"source": "patent US10590078B2", "about": "“Sodium channel blockers” (Daewoong Pharmaceutical Co., Ltd., priority 2015, dated 2020)", "molecular_target": "human sodium ion channel 1.7 (hNav1.7) (Homo sapiens, UniProt Q15858)", "sequence (Q15858 whole entry)": "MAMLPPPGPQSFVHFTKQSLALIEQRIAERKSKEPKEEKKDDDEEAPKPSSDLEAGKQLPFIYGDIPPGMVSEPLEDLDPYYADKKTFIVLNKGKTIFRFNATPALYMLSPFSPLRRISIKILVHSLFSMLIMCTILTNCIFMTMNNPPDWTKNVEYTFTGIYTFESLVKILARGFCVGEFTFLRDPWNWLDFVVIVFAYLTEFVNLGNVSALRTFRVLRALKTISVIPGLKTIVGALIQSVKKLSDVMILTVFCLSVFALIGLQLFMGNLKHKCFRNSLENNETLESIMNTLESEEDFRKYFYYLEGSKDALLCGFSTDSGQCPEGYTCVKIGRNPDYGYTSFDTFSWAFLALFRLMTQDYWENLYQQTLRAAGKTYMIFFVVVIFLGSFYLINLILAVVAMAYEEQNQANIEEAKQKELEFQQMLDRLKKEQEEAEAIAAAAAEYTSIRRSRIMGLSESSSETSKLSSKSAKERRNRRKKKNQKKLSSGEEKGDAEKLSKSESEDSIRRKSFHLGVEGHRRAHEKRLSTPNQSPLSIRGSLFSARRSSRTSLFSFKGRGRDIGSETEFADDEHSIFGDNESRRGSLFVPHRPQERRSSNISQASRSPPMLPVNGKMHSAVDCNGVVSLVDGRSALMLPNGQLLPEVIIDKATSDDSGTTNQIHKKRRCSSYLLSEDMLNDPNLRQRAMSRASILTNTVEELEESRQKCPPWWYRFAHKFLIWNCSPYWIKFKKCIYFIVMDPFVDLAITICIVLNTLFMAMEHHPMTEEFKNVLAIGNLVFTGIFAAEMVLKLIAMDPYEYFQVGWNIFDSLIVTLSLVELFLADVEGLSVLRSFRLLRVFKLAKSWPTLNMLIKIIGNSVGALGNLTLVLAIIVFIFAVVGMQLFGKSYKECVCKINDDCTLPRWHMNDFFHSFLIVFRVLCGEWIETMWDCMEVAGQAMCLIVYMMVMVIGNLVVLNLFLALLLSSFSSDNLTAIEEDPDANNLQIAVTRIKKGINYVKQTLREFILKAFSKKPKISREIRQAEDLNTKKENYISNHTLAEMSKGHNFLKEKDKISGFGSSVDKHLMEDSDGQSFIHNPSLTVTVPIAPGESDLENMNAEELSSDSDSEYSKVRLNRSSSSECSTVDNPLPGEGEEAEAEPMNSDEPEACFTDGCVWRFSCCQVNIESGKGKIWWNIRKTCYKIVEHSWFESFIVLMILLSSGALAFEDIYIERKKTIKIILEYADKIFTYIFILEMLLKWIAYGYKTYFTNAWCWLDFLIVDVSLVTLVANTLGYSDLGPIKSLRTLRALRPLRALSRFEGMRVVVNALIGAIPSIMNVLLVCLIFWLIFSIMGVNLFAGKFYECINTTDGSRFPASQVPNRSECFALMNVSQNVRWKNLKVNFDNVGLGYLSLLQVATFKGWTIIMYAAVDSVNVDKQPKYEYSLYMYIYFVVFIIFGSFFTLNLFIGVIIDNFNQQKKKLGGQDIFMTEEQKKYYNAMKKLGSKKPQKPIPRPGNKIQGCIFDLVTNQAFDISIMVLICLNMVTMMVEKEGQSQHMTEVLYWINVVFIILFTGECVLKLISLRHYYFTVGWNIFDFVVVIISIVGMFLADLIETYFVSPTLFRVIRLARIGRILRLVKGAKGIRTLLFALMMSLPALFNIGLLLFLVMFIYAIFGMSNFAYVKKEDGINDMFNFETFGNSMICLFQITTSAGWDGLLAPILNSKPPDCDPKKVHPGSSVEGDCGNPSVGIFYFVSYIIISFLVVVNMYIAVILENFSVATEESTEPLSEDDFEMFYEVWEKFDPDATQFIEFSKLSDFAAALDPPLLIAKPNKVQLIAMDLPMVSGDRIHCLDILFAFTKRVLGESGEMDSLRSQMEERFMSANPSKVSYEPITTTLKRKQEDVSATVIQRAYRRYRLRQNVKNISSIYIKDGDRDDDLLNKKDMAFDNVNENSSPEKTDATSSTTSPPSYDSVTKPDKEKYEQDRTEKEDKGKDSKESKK", "assay": "Blocking effect against sodium ion channel Nav1.7, IonFlux16 auto patch clamp in hNav1.7 HEK293 cells", "type": "cell-based", "details": "hNav1.7 HEK293 cells; inhibition of peak current after 50 seconds treatment; eight concentrations; read-out: IC50"}
{"smiles": "Cc1nn(-c2cc(F)c(S(=O)(=O)Nc3cscn3)cc2Cl)c2ccc(Cl)cc12", "note": "[Example 277, 5-chloro-4-(5-chloro-3-methyl-1H-indazol-1-yl)-2-fluoro-N-(thiazol-4-yl)benzenesulfonamide]", "values": [{"measurement": "IC50", "result": 0.33, "unit": "µM"}]}
{"smiles": "N#Cc1cc(S(=O)(=O)Nc2cscn2)ccc1-n1nc(Cl)c2cc(C(F)(F)F)ccc21", "note": "[Example 278, 4-(3-chloro-5-(trifluoromethyl)-1H-indazol-1-yl)-3-cyano-N-(thiazol-4-yl)benzenesulfonamide]", "values": [{"measurement": "IC50", "result": 8.91, "unit": "µM"}]}
{"smiles": "O=S(=O)(Nc1cscn1)c1cc(F)c(-n2nc(Cl)c3cc(C(F)(F)F)ccc32)cc1F", "note": "[Example 279, 4-(3-chloro-5-(trifluoromethyl)-1H-indazol-1-yl)-2,5-difluoro-N-(thiazol-4-yl)benzenesulfonamide]", "values": [{"measurement": "IC50", "result": "> 10", "unit": "µM"}]}
{"smiles": "O=S(=O)(Nc1cscn1)c1cc(Cl)c(-n2nc(Cl)c3cc(C(F)(F)F)ccc32)cc1F", "note": "[Example 280, 5-chloro-4-(3-chloro-5-(trifluoromethyl)-1H-indazol-1-yl)-2-fluoro-N-(thiazol-4-yl)benzenesulfonamide]", "values": [{"measurement": "IC50", "result": 1.08, "unit": "µM"}]}
{"smiles": "O=S(=O)(Nc1ncns1)c1cc(F)c(-n2nc(Cl)c3cc(C(F)(F)F)ccc32)cc1F", "note": "[Example 281, 4-(3-chloro-5-(trifluoromethyl)-1H-indazol-1-yl)-2,5-difluoro-N-(1,2,4-thiadiazol-5-yl)benzenesulfonamide]", "values": [{"measurement": "IC50", "result": "3 to 10", "unit": "µM"}]}
{"smiles": "Cn1nccc1-c1nn(-c2cc(F)c(S(=O)(=O)Nc3cscn3)cc2Cl)c2ccc(Cl)cc12", "note": "[Example 282, 5-chloro-4-(5-chloro-3-(1-methyl-1H-pyrazol-5-yl)-1H-indazol-1-yl)-2-fluoro-N-(thiazol-4-yl)benzenesulfonamide]", "values": [{"measurement": "IC50", "result": 1.65, "unit": "µM"}]}
{"smiles": "Cn1nccc1-c1nn(-c2cc(F)c(S(=O)(=O)Nc3ncns3)cc2Cl)c2ccc(Cl)cc12", "note": "[Example 283, 5-chloro-4-(5-chloro-3-(1-methyl-1H-pyrazol-5-yl)-1H-indazol-1-yl)-2-fluoro-N-(1,2,4-thiadiazol-5-yl)benzenesulfonamide]", "values": [{"measurement": "IC50", "result": "> 3", "unit": "µM"}]}
{"smiles": "O=S(=O)(Nc1cscn1)c1cc(Cl)c(-n2nc(-c3cn[nH]c3)c3cc(Cl)ccc32)cc1F", "note": "[Example 284, 5-chloro-4-(5-chloro-3-(1H-pyrazol-4-yl)-1H-indazol-1-yl)-2-fluoro-N-(thiazol-4-yl)benzenesulfonamide]", "values": [{"measurement": "IC50", "result": "> 10", "unit": "µM"}]}
{"smiles": "Cn1nccc1-c1ccc2c(cnn2-c2cc(F)c(S(=O)(=O)Nc3cscn3)cc2Cl)c1", "note": "[Example 285, 5-chloro-2-fluoro-4-(5-(1-methyl-1H-pyrazol-5-yl)-1H-indazol-1-yl)-N-(thiazol-4-yl)benzenesulfonamide]", "values": [{"measurement": "IC50", "result": "> 10", "unit": "µM"}]}
{"smiles": "Cn1nccc1-c1ccc2c(c1)c(Cl)nn2-c1cc(F)c(S(=O)(=O)Nc2cscn2)cc1Cl", "note": "[Example 286, 5-chloro-4-(3-chloro-5-(1-methyl-1H-pyrazol-5-yl)-1H-indazol-1-yl)-2-fluoro-N-(thiazol-4-yl)benzenesulfonamide]", "values": [{"measurement": "IC50", "result": "3 to 10", "unit": "µM"}]}
{"smiles": "O=S(=O)(Nc1cscn1)c1cc(Cl)c(-n2nc(-c3ccc(Cl)cc3F)c3cc(Cl)ccc32)cc1F", "note": "[Example 287, 5-chloro-4-(5-chloro-3-(4-chloro-2-fluorophenyl)-1H-indazol-1-yl)-2-fluoro-N-(thiazol-4-yl)benzenesulfonamide]", "values": [{"measurement": "IC50", "result": 8.25, "unit": "µM"}]}
{"smiles": "N#Cc1cc(Cl)c(-n2nc(-c3ccc(Cl)cc3F)c3cc(Cl)ccc32)cc1F", "note": "[Example 288, 5-chloro-4-(5-chloro-3-(4-chloro-2-fluorophenyl)-1H-indazol-1-yl)-2-fluorobenzonitrile]", "values": [{"measurement": "IC50", "result": "> 10", "unit": "µM"}]}
{"smiles": "Fc1cc(-n2nc(-c3ccc(Cl)cc3F)c3cc(Cl)ccc32)c(Cl)cc1-c1nnn[nH]1", "note": "[Example 289, 5-chloro-3-(4-chloro-2-fluorophenyl)-1-(2-chloro-5-fluoro-4-(1H-tetrazol-5-yl)phenyl)-1H-indazole]", "values": [{"measurement": "IC50", "result": "> 10", "unit": "µM"}]}
{"smiles": "NC(=O)NNC(=O)c1cc(Cl)c(-n2nc(-c3ccc(Cl)cc3F)c3cc(Cl)ccc32)cc1F", "note": "[Example 290, 2-(5-chloro-4-(5-chloro-3-(4-chloro-2-fluorophenyl)-1H-indazol-1-yl)-2-fluorobenzoyl)hydrazine-1-carboxamide]", "values": [{"measurement": "IC50", "result": 11.2, "unit": "µM"}]}
